Values of other authors as cited in patent US20230210112A1, “METHOD FOR GROWING PLANTS” (Taminco BV, priority 2020, published 2023).

Assays:
pests = conditions: in vivo
Tomato plants = conditions: treated tomato seedlings
cauliflower seedlings = conditions: 20 mM BABA

SMILES	Effect on plant growth or development (in words) (pests)	Resistance-inducing activity (in words) (pests)	Concentration at which root growth repression was observed (as low as) (Tomato plants)	Reduction in growth of cauliflower seedlings (cauliflower seedlings)
N[C@@H](CO)CC(=O)O [(R)-beta-homoserine]	without affecting plant growth or development	strong resistance-inducing activity		
CC(N)CC(=O)O (stereo not drawn) [BABA, beta-aminobutyric acid]			500 µM	14.7%
CC/C=C\C[C@H]1C(=O)CC[C@@H]1CC(=O)O [JA, jasmonic acid]			250 µM	
